Experimental data from patent US11517570B2 (Kronos Bio, Inc., priority 2013, dated 2022).

These molecules were tested on human hepatocytes (assay: Human Hepatocyte Stability Assay). Settings: comparison table with known compounds; head prints "(units)", L/hr/kg from the method.
Type: in vitro ADME
Method: The human […] stability of the compounds as predicted hepatocyte clearance in L/hr/kg was assessed. Compounds to be tested were diluted to 200 μM (4 μl of 10 mM DMSO stock into 196 μl ACN:H2O (50:50). Propranolol was used as a positive control, and buffer only without hepatocytes as 0% control. These were further diluted 4 μl with 891 μl KHB buffer (InVitroGRO catalog number Z99074) to provide 2× dosing solution. To each well of 24 well plate, 250 μl of the 2× dosing solution was added to each well with 250 μl of hepatocytes cells (1×10^6 viable cells/ml per well) or KHB for control samples to achieve a final compound concentration of 1 μM during incubation. The final solvent concentration was 0.01% DMSO and 0.25% ACN. The culture plate was placed on a rocker and incubated at 37° C., 5% CO2. Samples were collected at time 0, 1, 3, and 6 hours. The loss of parent compound was determined using LC-MS methods against a standard curve.

For `COc1ccc(Nc2nc(-c3cccc(N)c3)cn3ccnc23)cc1OC` [6-(3-aminophenyl)-N-(3,4-dimethoxyphenyl)imidazo[1,2-a]pyrazin-8-amine, reference compound], which “Hheps CL” value is on record?
Its value is 4 mL/min/kg.

Which “Hheps CL” value does the source give for `Cc1ncc(-c2cn3ccnc3c(Nc3ccc(N4CCOCC4)cc3)n2)cc1N` [6-(5-amino-6-methylpyridin-3-yl)-N-(4-morpholinophenyl)imidazo[1,2-a]pyrazin-8-amine, reference compound] here?
The value was 13.3 mL/min/kg.

For `Nc1cncc(-c2cn3ccnc3c(Nc3ccc(N4CCOCC4)cc3)n2)c1` [6-(5-aminopyridin-3-yl)-N-(4-morpholinophenyl)imidazo[1,2-a]pyrazin-8-amine, reference compound], which “Hheps CL” value is on record?
The value was 11.3 mL/min/kg.

How did the “Hheps CL” value turn out when `COc1ccc(Nc2nc(-c3ccc(N)nc3)cn3ccnc23)cc1OC` [6-(6-aminopyridin-3-yl)-N-(3,4-dimethoxyphenyl)imidazo[1,2-a]pyrazin-8-amine, reference compound] was run?
The value was 15 mL/min/kg.

Which “Hheps CL” value does the source give for `Cc1ncc(-c2cn3ccnc3c(Nc3ccc(N4CCN(C5COC5)CC4)cc3)n2)nc1N` [Ex.-1, 6-(6-amino-5-methylpyrazin-2-yl)-N-(4-(4-(oxetan-3-yl)piperazin-1-yl)phenyl)imidazo[1,2-a]pyrazin-8-amine] here?
Its value is 2 mL/min/kg.

How did the “Hheps CL” value turn out when `Nc1cncc(-c2cn3ccnc3c(Nc3ccc(N4CCN(C5COC5)CC4)cc3)n2)n1` [Ex.-2, 6-(6-aminopyrazin-2-yl)-N-(4-(4-(oxetan-3-yl)piperazin-1-yl)phenyl)imidazo[1,2-a]pyrazin-8-amine] was run?
Its value is 0.917 mL/min/kg.

Which “Hheps CL” value does the source give for `Nc1cncc(-c2cn3ccnc3c(Nc3ccc(N4CCO[C@@H](CO)C4)cc3)n2)n1` [Ex.-3, (R)-(4-(4-((6-(6-aminopyrazin-2-yl)imidazo[1,2-a]pyrazin-8-yl)amino)phenyl)morpholin-2-yl)methanol] here?
Its value is 1.5 mL/min/kg.

For `Cc1c(-c2cncc(N)n2)nc(Nc2ccc(N3CCN(C4COC4)CC3)cc2)c2nccn12` [Ex.-4, 6-(6-aminopyrazin-2-yl)-5-methyl-N-(4-(4-(oxetan-3-yl)piperazin-1-yl)phenyl)imidazo[1,2-a]pyrazin-8-amine], which “Hheps CL” value is on record?
Its value is 1.3 mL/min/kg.

For `Nc1cncc(-c2cn3ccnc3c(Nc3ccc(N4CCN(C5COC5)CC4)c(OCCO)c3)n2)n1` [Ex.-5, 2-(5-((6-(6-aminopyrazin-2-yl)imidazo[1,2-a]pyrazin-8-yl)amino)-2-(4-(oxetan-3-yl)piperazin-1-yl)phenoxy)ethanol], which “Hheps CL” value is on record?
The value was 1.2 mL/min/kg.

`Nc1cncc(-c2cn3ccnc3c(Nc3ccc(N4CCN(CC(CO)CO)CC4)cc3)n2)n1` [Ex.-6, 2-((4-(4-((6-(6-aminopyrazin-2-yl)imidazo[1,2-a]pyrazin-8-yl)amino)phenyl)piperazin-1-yl)methyl)propane-1,3-diol] was tested. Which “Hheps CL” value did it give?
The value was 1.3 mL/min/kg.

Which “Hheps CL” value does the source give for `Cc1ncc(-c2cn3ccnc3c(Nc3ccc(N4CCN(C5COC5)CC4)c(OCCO)c3)n2)nc1N` [Ex.-7, 2-(5-((6-(6-amino-5-methylpyrazin-2-yl)imidazo[1,2-a]pyrazin-8-yl)amino)-2-(4-(oxetan-3-yl)piperazin-1-yl)phenoxy)ethanol] here?
The value was 0.83 mL/min/kg.
